“Also recorded” adds a separate entry of the source.
System: HCoV-229E and three SARS-CoV-2 variants
Assay: Antiviral effect against all tested coronavirus variants (text comparisons)
Type: cell-based, human coronavirus
Details: for antiviral effect against all tested coronavirus variants (in words): HCoV-229E and three SARS-CoV-2 variants

## O=C(Cc1ccccc1F)OC[C@H]1O[C@@H](n2ccc(NO)nc2=O)[C@H](O)[C@@H]1O [SN_17, 5′-O-(2-Fluorophenyl)acetyl-N4-hydroxycytidine]
Compared with 4-fluoro substituted conjugate SN_18
  fold increase in antiviral activity compared to SN_18: ≥ 2 fold

## O=C(OC[C@H]1O[C@@H](n2ccc(NO)nc2=O)[C@H](O)[C@@H]1O)C1(c2ccccc2)CC1 [SN_20, 5′-O-(1-Phenylcyclopropanoyl-1-carbonyl)-N4-hydroxycytidine]
  antiviral effect against all tested coronavirus variants (in words): no antiviral effect; also recorded: lowest activity

## Cc1cccc(OCC(=O)OC[C@H]2O[C@@H](n3ccc(NO)nc3=O)[C@H](O)[C@@H]2O)c1 [SN_22, 5′-O-(3-Methylphenoxy)acetyl-N4-hydroxycytidine]
  antiviral effect against all tested coronavirus variants (in words): highest activity

## COc1cccc(CCC(=O)OC[C@H]2O[C@@H](n3ccc(NO)nc3=O)[C@H](O)[C@@H]2O)c1 [SN_23, 5′-O-3-(3-Methoxyphenyl)propanoyl-N4-hydroxycytidine]
Compared with SN_15 and SN_16
  times higher antiviral effect than SN_15 and SN_16: 2–6 times
